{"source": "patent US6717017B2", "about": "“Total synthesis of antitumor acylfulvenes” (The Regents of the University of California, priority 1996, dated 2004)", "origin": "cited, not measured here", "key": {"[1]": {"system": "MV 522 metastatic lung carcinoma xenografts", "settings": "MV 522 metastatic lung carcinoma xenografts in nude mice"}, "[2]": {"system": "breast (MX-1)"}, "[3]": {"system": "colon (HT-29)"}, "[4]": {"system": "skin cancers", "settings": "in vivo"}}, "data": [{"compound": "CC1=C(CO)C2=C(C)C3(CC3)[C@@](C)(O)C(=O)C2=C1", "note": "[HMAF, hydroxymethylacylfulvene]", "values": [{"measurement": "tumor regression", "setting": "[1]", "result": "complete tumor regression was observed in all animals"}, {"measurement": "activity against breast (MX-1) cancer", "setting": "[2]", "result": "outstanding activity"}, {"measurement": "activity against colon (HT-29) cancer", "setting": "[3]", "result": "outstanding activity"}, {"measurement": "activity against skin cancers", "setting": "[4]", "result": "outstanding activity"}]}]}
